Measured values as given in patent US20050038007A1, “Dosage forms of cholesteryl ester transfer protein inhibitors and HMG-CoA reductase inhibitors” (Pfizer Inc, priority 2003, published 2005).

Assay: Aqueous solubility of torcetrapib
Assay type: physicochemical
Details: water (aqueous), at about 22° C.
Description: The CETP inhibitor may be any compound capable of inhibiting the cholesteryl ester transfer protein. […] Many CETP inhibitors have even lower solubilities (some even less than 0.1 μg/mL), and require dramatic concentration enhancement to be sufficiently bioavailable upon oral dosing for effective plasma concentrations to be reached at practical doses.
CETP inhibitors, in particular torcetrapib, and methods for preparing such compounds are disclosed in detail in U.S. Pat. Nos. 6,197,786 and 6,313,142, in PCT Application Nos. WO 01/40190A1, WO 02/088085A2, and WO 02/088069A2, the disclosures of which are herein incorporated by reference. Torcetrapib has an unusually low solubility in aqueous environments such as the lumenal fluid of the human GI tract. The aqueous solubility of torcetrapib is less than about 0.04 μg/ml. Torcetrapib must be presented to the GI tract in a solubility-improved form in order to achieve a sufficient drug concentration in the GI tract in order to achieve sufficient absorption into the blood to elicit the desired therapeutic effect.

Work on CCOC(=O)N1c2ccc(C(F)(F)F)cc2[C@@H](N(Cc2cc(C(F)(F)F)cc(C(F)(F)F)c2)C(=O)OC)C[C@H]1CC [Torcetrapib, [2R,4S]-4-[(3,5-bis-trifluoromethyl-benzyl)-methoxycarbonyl-amino]-2-ethyl-6-trifluoromethyl-3,4-dihydro-2H-quinoline-1-carboxylic acid ethyl ester] yielded a solubility of under 0.04 µg/mL.
